Data published in patent publication EP1763509B1, “ALPHA-HELICAL MIMETICS” (THE WALTER AND ELIZA HALL INSTITUTE OF MEDICAL RESEARCH, priority 2004, dated 2006).

Legend:
Bcl-wΔ29 = biological target: T1, Bcl-wΔ29 (Homo sapiens, UniProt Q92843); test: Alphascreen GST competition binding assay, benzoylurea compounds vs Biotinylated Bim BH3-26 peptide on GST tagged Bclw ΔC29 protein; conditions: GST tagged Bclw ΔC29 protein 0.05 nM, Biotinylated Bim BH3-26 peptide 3.0 nM, 4 hours at room temperature; values marked a tested in a separate experiment; n.b. = not binding in the assay conditions
T1 construct: GST tagged Bclw ΔC29 protein
T1 sequence (Q92843 1-164 limits assumed): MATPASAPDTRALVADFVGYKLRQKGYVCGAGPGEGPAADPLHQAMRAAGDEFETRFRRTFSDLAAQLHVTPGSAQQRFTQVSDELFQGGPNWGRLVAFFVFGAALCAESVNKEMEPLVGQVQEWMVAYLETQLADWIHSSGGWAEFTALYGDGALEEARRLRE

Bcl-xLΔ25 = biological target: T2, Bcl-xLΔ25 (Homo sapiens, UniProt Q07817); test: Alphascreen GST competition binding assay, benzoylurea compounds vs Biotinylated Bim BH3-26 peptide on GST tagged Bcl-xL ΔC25 protein; conditions: GST tagged Bcl-xL ΔC25 protein 0.6 nM, Biotinylated Bim BH3-26 peptide 5.0 nM, 4 hours at room temperature; n.b. = not binding in the assay conditions
T2 construct: GST tagged Bcl-xL ΔC25 protein
T2 sequence (Q07817 1-208 limits assumed, stated change not applied): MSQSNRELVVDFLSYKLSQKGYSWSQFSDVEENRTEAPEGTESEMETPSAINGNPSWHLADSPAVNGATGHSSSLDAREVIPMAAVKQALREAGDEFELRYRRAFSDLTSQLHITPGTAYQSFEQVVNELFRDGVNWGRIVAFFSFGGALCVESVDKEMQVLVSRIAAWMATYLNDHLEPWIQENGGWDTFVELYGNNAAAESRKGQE

Mcl-1 = Mcl-1 (Homo sapiens, UniProt Q07820); test: Alphascreen GST competition binding assay, benzoylurea compounds vs Biotinylated Bak BH3 peptide on GST tagged Mcl-1 protein; conditions: GST tagged Mcl-1 protein 0.4 nM, Biotinylated Bak BH3 peptide 4.0 nM, 4 hours at room temperature; n.b. = not binding in the assay conditions
Mcl-1, sequence (Q07820 whole entry, species assumed): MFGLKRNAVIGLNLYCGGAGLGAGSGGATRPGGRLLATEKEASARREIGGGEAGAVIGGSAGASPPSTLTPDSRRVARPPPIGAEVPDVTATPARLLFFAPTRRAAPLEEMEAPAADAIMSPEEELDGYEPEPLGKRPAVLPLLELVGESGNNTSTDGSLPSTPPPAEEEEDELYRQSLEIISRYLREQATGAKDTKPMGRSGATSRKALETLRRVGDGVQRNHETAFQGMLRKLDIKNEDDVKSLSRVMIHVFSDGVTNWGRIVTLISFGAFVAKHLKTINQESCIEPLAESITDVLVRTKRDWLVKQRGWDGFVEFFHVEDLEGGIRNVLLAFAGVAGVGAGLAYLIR

CCCCN(C(=O)N[C@@H](CSCc1ccccc1)C(=O)O)C(=O)c1cccc(-c2ccccc2)c1 [(2)]
IC50 (Bcl-wΔ29): 57 µM
IC50 (Bcl-xLΔ25): 56.8 µM

CC(C)CN(C(=O)N[C@@H](CSCc1ccccc1)C(=O)O)C(=O)c1cccc(-c2ccccc2)c1 [(3)]
IC50 (Bcl-wΔ29): 65 µM
IC50 (Bcl-xLΔ25): 65.8 µM

CC(C)N(C(=O)N[C@@H](CSCc1ccccc1)C(=O)O)C(=O)c1cccc(-c2ccccc2)c1 [(5)]
IC50 (Bcl-wΔ29): 266 µM
IC50 (Bcl-xLΔ25): 153 µM

O=C(O)[C@H](CSCc1ccccc1)NC(=O)N(C(=O)c1cccc(-c2ccccc2)c1)C1CCCCC1 [(6)]
IC50 (Bcl-wΔ29): 73 µM
IC50 (Bcl-xLΔ25): 54.2 µM

O=C(O)[C@H](CSCc1ccccc1)NC(=O)N(CC1CCCCC1)C(=O)c1cccc(-c2ccccc2)c1 [(7)]
IC50 (Bcl-wΔ29): 37 µM
IC50 (Bcl-xLΔ25): 45.2 µM

O=C(O)[C@H](CSCc1ccccc1)NC(=O)N(Cc1ccccc1)C(=O)c1cccc(-c2ccccc2)c1 [(8)]
IC50 (Bcl-wΔ29): 46 µM
IC50 (Bcl-xLΔ25): 36.4 µM

Cc1ccc(CN(C(=O)N[C@@H](CSCc2ccccc2)C(=O)O)C(=O)c2ccc(-c3ccccc3)cc2)cc1 [(82)]
IC50 (Bcl-wΔ29): 45 µM
IC50 (Bcl-xLΔ25): 27 µM
IC50 (Mcl-1): 169 µM

COc1ccc(CN(C(=O)N[C@@H](CSCc2ccccc2)C(=O)O)C(=O)c2ccc(-c3ccccc3)cc2)cc1 [(83)]
IC50 (Bcl-wΔ29): 35 µM
IC50 (Bcl-xLΔ25): 14 µM
IC50 (Mcl-1): 77 µM

O=C(O)[C@H](CSCc1ccccc1)NC(=O)N(Cc1ccc(Cl)cc1)C(=O)c1ccc(-c2ccccc2)cc1 [(84)]
IC50 (Bcl-wΔ29): 27 µM
IC50 (Bcl-xLΔ25): 11 µM
IC50 (Mcl-1): 61 µM

O=C(O)[C@H](CSCc1ccccc1)NC(=O)N(Cc1ccc(Cl)c(Cl)c1)C(=O)c1ccc(-c2ccccc2)cc1 [(85)]
IC50 (Bcl-wΔ29): 40 µM
Bcl-xLΔ25 IC50 (µM) (Bcl-xLΔ25): n.b.^b
IC50 (Mcl-1): 95 µM

CCCN(C(=O)N[C@@H](CSCc1ccccc1)C(=O)O)C(=O)c1ccc(/C=C/c2ccccc2)cc1 [(86)]
IC50 (Bcl-wΔ29): 82 µM
IC50 (Bcl-xLΔ25): 283 µM
Mcl-1 IC50 (µM) (Mcl-1): n.b.^b

CCCN(C(=O)N[C@@H](CSCc1ccccc1)C(=O)O)C(=O)c1ccc(CCc2ccccc2)cc1 [(89)]
IC50 (Bcl-wΔ29): 50 µM
IC50 (Bcl-xLΔ25): 86 µM
IC50 (Mcl-1): 107 µM

CCCSC[C@H](NC(=O)N(CCC)C(=O)c1cccc(C#Cc2ccccc2)c1)C(=O)O [(90)]
IC50 (Bcl-wΔ29): 39 µM
IC50 (Bcl-xLΔ25): 22 µM
IC50 (Mcl-1): 70 µM

CCCN(C(=O)N[C@@H](CSCC(C)C)C(=O)O)C(=O)c1cccc(C#Cc2ccccc2)c1 [(91)]
IC50 (Bcl-wΔ29): 32 µM
IC50 (Bcl-xLΔ25): 16 µM
IC50 (Mcl-1): 92 µM

CCCN(C(=O)N[C@@H](CSC(C)C)C(=O)O)C(=O)c1cccc(C#Cc2ccccc2)c1 [(92)]
IC50 (Bcl-wΔ29): 67 µM
IC50 (Bcl-xLΔ25): 36 µM
Mcl-1 IC50 (µM) (Mcl-1): n.b.^b

CCCN(C(=O)N[C@@H](CSc1ccccc1)C(=O)O)C(=O)c1cccc(C#Cc2ccccc2)c1 [(93)]
IC50 (Bcl-wΔ29): 26 µM
IC50 (Bcl-xLΔ25): 27 µM
IC50 (Mcl-1): 53 µM

CCCN(C(=O)N[C@@H](CSCCc1ccccc1)C(=O)O)C(=O)c1cccc(C#Cc2ccccc2)c1 [(94)]
IC50 (Bcl-wΔ29): 19 µM
IC50 (Bcl-xLΔ25): 23 µM
IC50 (Mcl-1): 46 µM

CCCN(C(=O)N[C@@H](CSCc1ccccc1-c1ccccc1)C(=O)O)C(=O)c1cccc(C#Cc2ccccc2)c1 [(96)]
IC50 (Bcl-wΔ29): 52 µM
IC50 (Bcl-xLΔ25): 153 µM
IC50 (Mcl-1): 133 µM

CCCSC[C@H](NC(=O)N(CCC)C(=O)c1cccc(-c2ccccc2Cl)c1)C(=O)O [(97)]
IC50 (Bcl-wΔ29): 68 µM
IC50 (Bcl-xLΔ25): 199 µM
IC50 (Mcl-1): 264 µM

CCCN(C(=O)N[C@@H](CSCC(C)C)C(=O)O)C(=O)c1cccc(-c2ccccc2Cl)c1 [(98)]
IC50 (Bcl-wΔ29): 32 µM
IC50 (Bcl-xLΔ25): 93 µM
IC50 (Mcl-1): 107 µM

CCCN(C(=O)N[C@@H](CSC(C)C)C(=O)O)C(=O)c1cccc(-c2ccccc2Cl)c1 [(99)]
IC50 (Bcl-wΔ29): 60 µM
IC50 (Bcl-xLΔ25): 163 µM
IC50 (Mcl-1): 168 µM

CCCN(C(=O)N[C@@H](CSc1ccccc1)C(=O)O)C(=O)c1cccc(-c2ccccc2Cl)c1 [(100)]
IC50 (Bcl-wΔ29): 18 µM
IC50 (Bcl-xLΔ25): 48 µM
IC50 (Mcl-1): 52 µM

CCCN(C(=O)N[C@@H](CSCCc1ccccc1)C(=O)O)C(=O)c1cccc(-c2ccccc2Cl)c1 [(101)]
IC50 (Bcl-wΔ29): 19 µM
IC50 (Bcl-xLΔ25): 42 µM
IC50 (Mcl-1): 55 µM

CCCN(C(=O)N[C@@H](CSCCCc1ccccc1)C(=O)O)C(=O)c1cccc(-c2ccccc2Cl)c1 [(102)]
IC50 (Bcl-wΔ29): 18 µM
IC50 (Bcl-xLΔ25): 50 µM
IC50 (Mcl-1): 51 µM

CCCN(C(=O)N[C@@H](CSCc1ccccc1-c1ccccc1)C(=O)O)C(=O)c1cccc(-c2ccccc2Cl)c1 [(103)]
IC50 (Bcl-wΔ29): 18 µM
IC50 (Bcl-xLΔ25): 53 µM
IC50 (Mcl-1): 36 µM

CCCN(C(=O)Cc1cccc(-c2ccccc2)c1)C(=O)N[C@@H](CSCc1ccccc1)C(=O)O [(104)]
IC50 (Bcl-wΔ29): 205 µM
IC50 (Bcl-xLΔ25): 187 µM
IC50 (Mcl-1): 267 µM

CCCN(C(=O)Cc1ccccc1)C(=O)N[C@@H](CSCc1ccccc1)C(=O)O [(105)]
IC50 (Bcl-wΔ29): 71 µM
IC50 (Bcl-xLΔ25): 183 µM
IC50 (Mcl-1): 164 µM

CC(C)Cc1cccc(C(=O)N(Cc2ccccc2)C(=O)N[C@@H](CSCc2ccccc2)C(=O)O)c1 [(107)]
IC50 (Bcl-wΔ29): 37 µM
IC50 (Bcl-xLΔ25): 70 µM
IC50 (Mcl-1): 73 µM

CC(C)Cc1cccc(C(=O)N(CCc2ccccc2)C(=O)N[C@@H](CSCc2ccccc2)C(=O)O)c1 [(108)]
IC50 (Bcl-wΔ29): 49 µM
IC50 (Bcl-xLΔ25): 87 µM
IC50 (Mcl-1): 72 µM

CC(C)CCc1cccc(C(=O)N(Cc2ccccc2)C(=O)N[C@@H](CSCc2ccccc2)C(=O)O)c1 [(109)]
IC50 (Bcl-wΔ29): 29 µM
IC50 (Bcl-xLΔ25): 81 µM
IC50 (Mcl-1): 65 µM

CC(C)CCc1cccc(C(=O)N(CCc2ccccc2)C(=O)N[C@@H](CSCc2ccccc2)C(=O)O)c1 [(110)]
IC50 (Bcl-wΔ29): 37 µM
IC50 (Bcl-xLΔ25): 85 µM
IC50 (Mcl-1): 64 µM

CCCCSC[C@H](NC(=O)N(Cc1ccccc1)C(=O)c1cccc(CC(C)C)c1)C(=O)O [(111)]
IC50 (Bcl-wΔ29): 36 µM
IC50 (Bcl-xLΔ25): 115 µM
IC50 (Mcl-1): 86 µM

CCCCSC[C@H](NC(=O)N(CCc1ccccc1)C(=O)c1cccc(CC(C)C)c1)C(=O)O [(112)]
IC50 (Bcl-wΔ29): 40 µM
IC50 (Bcl-xLΔ25): 119 µM
IC50 (Mcl-1): 112 µM

CCCCSC[C@H](NC(=O)N(Cc1ccccc1)C(=O)c1cccc(CCC(C)C)c1)C(=O)O [(113)]
IC50 (Bcl-wΔ29): 28 µM
IC50 (Bcl-xLΔ25): 94 µM
IC50 (Mcl-1): 65 µM

CCCCSC[C@H](NC(=O)N(CCc1ccccc1)C(=O)c1cccc(CCC(C)C)c1)C(=O)O [(114)]
IC50 (Bcl-wΔ29): 32 µM
IC50 (Bcl-xLΔ25): 85 µM
IC50 (Mcl-1): 58 µM

CCCN(C(=O)N[C@@H](CSCc1ccccc1)C(=O)O)C(=O)c1cccc(C#Cc2ccccc2[N+](=O)[O-])c1 [(135)]
IC50 (Bcl-xLΔ25): 32 µM
IC50 (Mcl-1): 57 µM

CCCN(C(=O)N[C@@H](CSCc1ccccc1)C(=O)O)C(=O)c1cccc(C#CCC(C)C)c1 [(136)]
IC50 (Bcl-xLΔ25): 23 µM
IC50 (Mcl-1): 204 µM

CCCN(C(=O)N[C@@H](CSCC(C)C)C(=O)O)C(=O)c1cccc(C#Cc2ccc(F)cc2)c1 [(137)]
IC50 (Bcl-xLΔ25): 9.5 µM
IC50 (Mcl-1): 132 µM

CCCN(C(=O)N[C@@H](CSCC(C)C)C(=O)O)C(=O)c1cccc(C#Cc2ccc(Cl)cc2)c1 [(138)]
IC50 (Bcl-xLΔ25): 26 µM
IC50 (Mcl-1): 146 µM

CCCN(C(=O)N[C@@H](CSCC(C)C)C(=O)O)C(=O)c1cccc(C#Cc2ccc(Br)cc2)c1 [(139)]
IC50 (Bcl-xLΔ25): 28 µM
IC50 (Mcl-1): 80 µM

CCCN(C(=O)N[C@@H](CSCC(C)C)C(=O)O)C(=O)c1cccc(C#Cc2cccc(F)c2)c1 [(140)]
IC50 (Bcl-xLΔ25): 44 µM
Mcl-1 IC50 (µM) (Mcl-1): n.b.^b

CCCN(C(=O)N[C@@H](CSCC(C)C)C(=O)O)C(=O)c1cccc(C#Cc2cccc(Cl)c2)c1 [(141)]
IC50 (Bcl-xLΔ25): 28 µM
IC50 (Mcl-1): 84 µM

CCCN(C(=O)N[C@@H](CSCC(C)C)C(=O)O)C(=O)c1cccc(C#Cc2cccc(Br)c2)c1 [(142)]
IC50 (Bcl-xLΔ25): 32 µM
IC50 (Mcl-1): 70 µM

CCCN(C(=O)N[C@@H](CSCC(C)C)C(=O)O)C(=O)c1cccc(C#Cc2ccccc2C)c1 [(143)]
IC50 (Bcl-xLΔ25): 30 µM
IC50 (Mcl-1): 74 µM

CCCN(C(=O)N[C@@H](CSCC(C)C)C(=O)O)C(=O)c1cccc(C#Cc2cccc(C)c2)c1 [(144)]
IC50 (Bcl-xLΔ25): 39 µM
IC50 (Mcl-1): 66 µM

CCCN(C(=O)N[C@@H](CSCC(C)C)C(=O)O)C(=O)c1cccc(C#Cc2ccc(C)cc2)c1 [(145)]
IC50 (Bcl-xLΔ25): 48 µM
IC50 (Mcl-1): 92 µM

CCCN(C(=O)N[C@@H](CSCC(C)C)C(=O)O)C(=O)c1cccc(C#Cc2ccccc2OC)c1 [(146)]
IC50 (Bcl-xLΔ25): 46 µM
Mcl-1 IC50 (µM) (Mcl-1): n.b.^b

CCCN(C(=O)N[C@@H](CSCC(C)C)C(=O)O)C(=O)c1cccc(C#Cc2ccc(OC)cc2)c1 [(147)]
IC50 (Bcl-xLΔ25): 50 µM
IC50 (Mcl-1): 85 µM

CCCN(C(=O)N[C@@H](CSCC(C)C)C(=O)O)C(=O)c1cccc(C#Cc2ccc(Oc3ccccc3)cc2)c1 [(148)]
IC50 (Bcl-xLΔ25): 172 µM
IC50 (Mcl-1): 71 µM
